# “Also recorded” adds a separate entry of the source.
# B1: b-catenin (other, mouse, UniProt Q02248 2-781, looked up)
# chain: ATQADLMELDMAMEPDRKAAVSHWQQQSYLDSGIHSGATTTAPSLSGKGNPEEEDVDTSQVLYEWEQGFSQSFTQEQVADIDGQYAMTRAQRVRAAMFPETLDEGMQIPSTQFDAAHPTNVQRLAEPSQMLKHAVVNLINYQDDAELATRAIPELTKLLNDEDQVVVNKAAVMVHQLSKKEASRHAIMRSPQMVSAIVRTMQNTNDVETARCTAGTLHNLSHHREGLLAIFKSGGIPALVKMLGSPVDSVLFYAITTLHNLLLHQEGAKMAVRLAGGLQKMVALLNKTNVKFLAITTDCLQILAYGNQESKLIILASGGPQALVNIMRTYTYEKLLWTTSRVLKVLSVCSSNKPAIVEAGGMQALGLHLTDPSQRLVQNCLWTLRNLSDAATKQEGMEGLLGTLVQLLGSDDINVVTCAAGILSNLTCNNYKNKMMVCQVGGIEALVRTVLRAGDREDITEPAICALRHLTSRHQEAEMAQNAVRLHYGLPVVVKLLHPPSHWPLIKATVGLIRNLALCPANHAPLREQGAIPRLVQLLVRAHQDTQRRTSMGGTQQQFVEGVRMEEIVEGCTGALHILARDVHNRIVIRGLNTIPLFVQLLYSPIENIQRVAAGVLCELAQDKEAAEAIEAEGATAPLTELLHSRNEGVATYAAAVLFRMSEDKPQDYKKRLSVELTSSLFRTEPMAWNETADLGLDIGAQGEALGYRQDDPSYRSFHSGGYGQDALGMDPMMEHEMGGHHPGADYPVDGLPDLGHAQDLMDGLPPGDSNQLAWFDTDL
# notes: Endogenous protein in total cell extracts, co-immunoprecipitated with VE-cadherin antibodies; also called beta-catenin; β-catenin
# B2: Dkk1: murine recombinant Dkk1, competitor of Wnt co-receptor Lrp5/6 (protein)
# chain: TLNSVLINSNAIKNLPPPLGGAGGQPGSAVSVAPGVLYEGGNKYQTLDNYQPYPCAEDEECGSDEYCSSPSRGAAGVGGVQICLACRKRRKRCMRHAMCCPGNYCKNGICMPSDHSHFPRGEIEESIIENLGNDHNAAAGDGYPRRTTLTSKIYHTKGQEGSVCLRSSDCAAGLCCARHFWSKICKPVLKEGQVCTKHKRKGSHGLEIFQRCYCGEGLACRIQKDHHQASNSSRLHTCQRH
# B3: VE-cadherin (other, mouse, UniProt P55284 46-784, looked up)
# chain: DWIWNQMHIDEEKNESLPHYVGKIKSNVNRQNAKYVLQGEFAGKIFGVDANTGNVLAYERLDREKVSEYFLTALIVDKNTNKNLEQPSSFTVKVHDINDNWPVFSHQVFNASVPEMSAIGTSVIRVTAVDADDPTVAGHATVLYQIVKGNEYFSIDNSGLIFTKIKNLDREKQAEYKIVVETQDALGLRGESGTATVMIRLEDINDNFPVFTQSTYTFSVPEDIRVGKPLGFLTVVDPDEPQNRMTKYSIMQGEYRDTFTIETDPKRNEGIIKPTKSLDYEVIQQYTFYIEATDPTIRYEYLSSTSGKNKAMVTINVLDVDEPPVFQRHFYHFKLPENQKKPLIGTVVAKDPDKAQRSIGYSIRKTSDRGQFFRITKQGNIYNEKELDRETYAWYNLTVEANELDSRGNPVGKESIVQVYIEVLDENDNPPEFAQPYEPKVCENAAQGKLVVQISATDKDVVPVNPKFKFALKNEDSNFTLINNHDNTANITVKYGQFNREHAKFHYLPVLISDNGVPSLTGTSTLTVGVCKCNEQGEFTFCEEMAAQAGVSIQALVAIFLCILTITVITLLIILRRRIRKQAHAHSKSALEIHEQLVTYDEEGGGEMDTTSYDVSVLNSVRGGSTKPLRSTMDARPAVYTQVQKPPRLAPGLHGGPREMATMIDVKKEEADNDGGGPPYDTLHIYGYEGAESIAESLSSLSTNSSDSDIDYDFLNDWGPRFKMLAELYGSDPQEELII
# notes: Endogenous protein immunoprecipitated from endothelial cell extracts with VE-cadherin antibodies (IP: VE); also called Cdh5
# How the values were obtained:
# [1] = tested on: CCM3-knockout (KO) endothelial cells; assay: Axin2 and S100a4 transcription in un-stimulated CCM3-knockout endothelial cells treated with Wnt pathway inhibitors; type: cell-based, mouse; details: 48 h, IWP2, IWP12 0.5, 2, 5 DM, Dkk1 0.5 uM
# Protocol: (§1) Drugs were added to confluent cells for 48 h before the indicated assays. Final concentrations for IWP2 and IWP12, both from Sigma-Aldrich, were: 0.5, 2, 5 DM. Drugs were dissolved in DMSO, control treatment (Vehicle) was 0.1% DMSO final concentration, as for drug treatment. Murine recombinant Dkk1 (R&D) was 0.5 DM on cells.
# (§2) RNA extraction was performed with RNeasy kits (74106; […]). The RNA (1 μg) was reverse transcribed with random hexamers (High Capacity cDNA Archive kits; Applied Biosystems). The cDNA was amplified with TaqMan gene expression assays (Applied Biosystems) using a 7900 HT thermocycler (ABI/Prism). For each sample, the expression levels were determined with the comparative threshold cycle (Ct) method, and normalized to the housekeeping genes encoding 18S and glyceraldehyde-3-phosphate dehydrogenase (GAPDH). For amplification, the following probes (Applied Biosystems) that have been validated to recognize the mouse transcripts in rtPCR were used: Axin2, Nkd1, Lef1, ccnd1, cMyc-Klf4, Ly6a, S100a4, Id1, Cdh2, Acta2, CD44. The probes to identify the CCM3 mRNA transcript were custom designed, as: forward, […] (SEQ ID No. 12); reverse, GCTCTGGCCGCTCAATCA (SEQ ID No. 13); reporter sequence, […] (SEQ ID No. 14).
# [2] = tested on: CCM3-knockout endothelial cell line; assay: rtPCR of b-catenin target gene and progenitor/EndMT markers in CCM3-knockout endothelial cell line; type: cell-based, mouse; details: 48 h; 135 mM sulindac sulfide, 125 mM sulindac sulfone, 200 mM silibinin, 250 mM salinomycin
# Protocol: In some experiments, endothelial cell lines from the lungs of CCM3-flox/flox mice (8-10 weeks old) were immortalized in culture through retroviral expression of polyoma middle T gene^60. […] These cells were then maintained in culture for up to 25 passages without detectable changes in the effects of this CCM3 ablation.
# Drugs were added to confluent cells for 48 h before the indicated assays. The final concentrations used were: […] (all from Sigma-Aldrich). As all of these were dissolved in DMSO, control treatment (vehicle) was 0.1% DMSO final concentration, as for drug treatment.
# as §2
# [3] = tested on: wild-type endothelial cells; assay: Wnt3a stimulation of stem-cell/EndMT marker expression in wild-type endothelial cells; type: cell-based, mouse; details: acute stimulation (48 h); 5 ng/ml
# Protocol: as §1, §2
# VE-cadherin = molecular target: B3; assay: co-immunoprecipitation with VE-cadherin antibodies and Western blot, bands quantified with ImageJ, mean of three experiments; vehicle-KO versus vehicle-WT
# Description: Active b-catenin and VE-cadherin were lost from cell-cell contacts (adherens junctions) in these CCM3-knockout endothelial cells (top main panels, XY axis; small lower panels, Z projection along X axis). The active b-catenin (KO vehicle, arrowheads) is concentrated into the nucleus (see corresponding arrowheads in DAPI stainings) (right panels). Treatment with sulindac sulfide restored the distribution of active b-catenin to the adherens junctions (right panels, sulindac sulfide, arrowheads, and small lower right panels, sulindac sulfide, small arrowheads, for distribution along Z axis) and co-localization of active b-catenin and VE-cadherin is observed (arrowheads). […] Podocalyxin is re-localized from the apical surface (left panels, WT, arrows) to be ectopically distributed on the basal side with CCM3 knockout (right panel, vehicle, arrowheads), as it has been reported for CCM1 knockout⁴⁶. Nuclei are outlined by white lines (DAPI). Sulindac sulfide re-establishes the correct apical distribution of podocalyxin (right panel, sulindac sulfide, arrows). Scale bar, […]. c. Representative Western blotting (top) and quantification (bottom) of the effects of sulindac sulfide on the co-immunoprecipitation complex of b-catenin and VE-cadherin. […] The quantification of the bands from the Western blotting was assessed as the means of three independent experiments, using ImageJ. d.
# [4] = tested on: Wnt3a-induced stimulation of Axin2; assay: Wnt3a-induced stimulation of Axin2 in wild-type and CCM3-knockout endothelial cell lines; type: cell-based, mouse; details: Dkk1 0.5 uM
# Protocol: as §1, §2
# b-catenin = molecular target: B1; assay: co-immunoprecipitation with VE-cadherin antibodies and Western blot, murine endothelial cell line extracts
molecule,measurement,setting,value
Cc1ccc2nc(NC(=O)CSc3nc4c(c(=O)n3-c3ccccc3)SCC4)sc2c1 [IWP2],b-catenin-driven activation of Axin2 and S100a4 transcription,[1],not inhibited; also recorded: did not inhibit
CC[C@@H](C(=O)[C@@H](C)[C@@H](O)[C@H](C)[C@@H]1O[C@@H]([C@@H](CC)C(=O)O)CC[C@@H]1C)[C@H]1O[C@]2(C=C[C@@H](O)[C@]3(CC[C@@](C)([C@H]4CC[C@](O)(CC)[C@H](C)O4)O3)O2)[C@H](C)C[C@@H]1C [salinomycin],"inhibition of transcription of Axin2, Klf4 and S100a4 (rtPCR)",[2],significantly reduced only Axin2 and S100a4
Cc1ccc2nc(NC(=O)CSc3nc4c(c(=O)n3C)SC(C)C4)sc2c1 (centres unmarked) [IWP12],b-catenin-driven activation of Axin2 and S100a4 transcription,[1],not inhibited; also recorded: did not inhibit
Wnt3a,induction of expression of stem-cell/EndMT markers,[3],cannot induce; also recorded: did not induce
B1,reduction of the b-catenin/VE-cadherin co-immunoprecipitation ratio in CCM3-knockout versus wild-type cells,VE-cadherin,35%
B2,Wnt3a-induced stimulation of Axin2,[4],effectively inhibited
same,b-catenin-driven activation of Axin2 and S100a4 transcription,[1],not inhibited; also recorded: did not inhibit
B3,binding result,b-catenin,binds

# Source: patent US20170027896A1, “METHODS AND COMPOSITIONS FOR THE TREATMENT OF VASCULAR MALFORMATION” (IFOM - FONDAZIONE ISTITUTO FIRC DI ONCOLOGIA MOLECOLARE, priority 2014, published 2017)
